Test results from patent US20230166255A1, “Methods And Devices For Detection Of Anticoagulants In Plasma And Whole Blood” (Massachusetts Institute of Technology, priority 2017, published 2023).
Where two headings read alike, the source gives them in different places.

How the values were obtained:
FXa = FXa (Homo sapiens, UniProt P00742); test: Clotting curves: clot detection time versus FXa agonist gradient (FIGS. 7A-7C); assay type: biochemical
Protocol: (§1) Clot detection agents can include fluorescent labeled fibrinogen, magnets, beads (may be fluorescent or colored) • b) Load into microfluidic device • i. See, e.g., FIGS. 1A-1D, 2A and 2B for examples of input loading configuration and order • c) Temperature control • i. Room temperature • ii. May increase up to 37° C.
(§2) The time it takes for each of the combinations to form a clot is then plotted. […] Concentration of the agonist (FXa for FIGS. 7A-7C, and FIIa for FIG. 7D) is plotted on the X-axis for each of the figures.

FIIa = FIIa (Homo sapiens, UniProt P00734)
Protocol: as §1, §2

Factor Xa = Factor Xa (Homo sapiens, UniProt P00742); test: Clot detection in whole blood in parallel microfluidic channel device pre-coated with Factor Xa; assay type: biochemical; details: whole blood with unfractionated heparin, 10 minutes
Factor Xa, sequence (P00742 235-488 limits assumed): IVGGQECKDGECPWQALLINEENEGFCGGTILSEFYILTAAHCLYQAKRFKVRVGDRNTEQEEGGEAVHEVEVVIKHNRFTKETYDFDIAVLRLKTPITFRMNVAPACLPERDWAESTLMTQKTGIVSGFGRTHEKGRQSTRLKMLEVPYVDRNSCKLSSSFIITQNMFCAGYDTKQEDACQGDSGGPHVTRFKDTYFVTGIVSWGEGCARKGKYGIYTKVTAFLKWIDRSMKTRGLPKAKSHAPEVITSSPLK
Factor Xa, sequence (P00742 41-179 partner limits assumed): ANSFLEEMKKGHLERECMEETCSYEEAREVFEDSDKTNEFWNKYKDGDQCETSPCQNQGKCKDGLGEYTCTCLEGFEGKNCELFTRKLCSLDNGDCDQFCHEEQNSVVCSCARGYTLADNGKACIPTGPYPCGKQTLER
Protocol: FIGS. 4A and 4B are fluorescent images illustrating clot detection using whole blood in a parallel microfluidic channel device 410 according to an example embodiment. Microfluidic channels 420 were pre-coated with agonist, Factor Xa, at various concentrations (7.5 ng/mL, 75 ng/mL, 750 ng/mL) or with buffer alone (negative control). The fluorescent images are taken at one time point (10 minutes). Microfluidic channels were washed with buffer prior to use to leave only bound FXa within the microfluidic channel. Fresh whole blood was placed into each input port and the blood was drawn in through capillary action. The blood was left to flow for 10 minutes and then the channel was gently washed with buffer. Depicted is a brightfield image of two samples evaluated. […] Unfractionated heparin inhibits Factors IIa and Xa in an antithrombin III-dependent fashion, which is why the addition of these factors at appropriate concentrations can help recover the clotting capability of the sample.

FXa, sequence (P00742 235-488 limits assumed): as the sequence (P00742 235-488 limits assumed) above
FXa, sequence (P00742 41-179 partner limits assumed): as the sequence (P00742 41-179 partner limits assumed) above

O=C(NC[C@H]1CN(c2ccc(N3CCOCC3=O)cc2)C(=O)O1)c1ccc(Cl)s1 [Rivaroxaban]
clot formation time (FXa; 250 ng/mL Rivaroxaban, agonist (FXa) concentration down to 375 ng/mL): significantly longer than the negative control but lower than 500 ng/mL
clot formation detected (time) (FXa; 500 ng/mL Rivaroxaban, agonist (FXa) down to 750 ng/mL): < 2.5 min

Dabigatran
clot formation detected (time) (FIIa; 250 ng/mL Dabigatran, agonist (FIIa) concentration down to 710 ng/mL): < 2.5 min
clot formation detected (time) (FIIa; 500 ng/mL Dabigatran, agonist (FIIa) down to 710 ng/mL): < 2.5 min
clot formation detected (time) (FIIa; < 25 ng/mL Dabigatran, agonist (FIIa) concentration down to 71 ng/mL): < 2.5 min

unfractionated heparin
clot formation (Factor Xa; channels coated with 7.5, 75, 750 ng/mL FXa): gradient of clot formation dependent on the concentration of FXa in the channel
clot formation (Factor Xa; negative control channel (buffer alone, no FXa)): minimal clot formation
